The target of assay [1] is T1, Sonic hedgehog protein (Mus musculus, UniProt Q62226). In words: Inhibition of SHh in mouse LIGHT2 cells. Type of assay: cell-based.
Assay [2] is described as follows: Inhibition of hedgehog pathway in mouse C3H10T1/2 cells assessed as alkaline phosphatase enzyme activity. It is filed as cell-based. To be noted: c3h 10t1/2.
Assay [3] is described as follows: Inhibition of SAG-induced hedgehog pathway in mouse SHH-LIGHT2 cells. It is filed as cell-based.
For another assay, the target named is Protein smoothened (Homo sapiens, UniProt Q99835, D473H). As to the kind of experiment: Inhibition of Smo D473H mutant (unknown origin) expressed in mouse C3H10T1/2 cells by luciferase assay. Type of assay: cell-based, C3H 10T1/2.
Sequence of Protein smoothened (Q99835 28-787 D473H limits assumed): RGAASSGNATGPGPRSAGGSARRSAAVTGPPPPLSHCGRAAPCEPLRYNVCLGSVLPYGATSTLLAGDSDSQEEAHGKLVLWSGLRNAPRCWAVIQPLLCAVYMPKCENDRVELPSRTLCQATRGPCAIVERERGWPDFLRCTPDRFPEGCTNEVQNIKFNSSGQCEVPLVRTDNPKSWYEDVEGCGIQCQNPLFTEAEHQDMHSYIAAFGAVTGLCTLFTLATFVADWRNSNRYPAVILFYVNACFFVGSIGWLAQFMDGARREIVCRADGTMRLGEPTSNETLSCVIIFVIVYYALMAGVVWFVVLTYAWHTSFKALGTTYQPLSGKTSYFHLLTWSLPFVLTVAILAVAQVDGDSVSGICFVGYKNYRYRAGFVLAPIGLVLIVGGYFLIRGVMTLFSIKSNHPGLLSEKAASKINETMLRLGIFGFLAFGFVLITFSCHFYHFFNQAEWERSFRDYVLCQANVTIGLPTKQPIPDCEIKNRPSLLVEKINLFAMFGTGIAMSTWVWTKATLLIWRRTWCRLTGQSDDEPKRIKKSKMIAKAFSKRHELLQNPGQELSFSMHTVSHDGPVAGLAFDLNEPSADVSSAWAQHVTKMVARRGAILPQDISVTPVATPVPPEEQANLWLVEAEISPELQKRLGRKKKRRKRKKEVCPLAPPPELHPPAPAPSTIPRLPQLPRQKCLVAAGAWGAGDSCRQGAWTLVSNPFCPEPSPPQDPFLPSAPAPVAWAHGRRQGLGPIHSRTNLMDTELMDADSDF
The nature of assay [4]: Antiproliferative activity against mouse medulloblastoma cells expressing wild type SMO. To be noted: Medulloblastoma cell. Type of assay: functional.
The nature of assay [5]: Cytotoxicity against human SK-N-BE(2) cells after 72 hrs by fluorometric microculture cytotoxicity assay. Type of assay: functional. To be noted: SKNBE2, 72 h, pooled result: one value given for 7 cell lines, strains, targets or settings.
The target in assay [6] is T1, Sonic hedgehog protein. In words: Inhibition of SHh palmitoylation in mouse NIH3T3 cells. Type of assay: cell-based.
Assay [7] has as its target T1, Sonic hedgehog protein. In words: Inhibition of SHh in mouse NIH3T3 cells assessed as Gli activation. It is filed as cell-based.
A short description of assay [8]: Inhibition of SHH-mediated mouse C3H10T1/2 cell differentiation to osteoblasts. To be noted: c3h 10t1/2.
Assay [9] is described as follows: Decrease of cell density in human CCC cells at 50 nM up to 24 hrs. It is filed as functional. Set-up: scale not given: the % may be the effect or the level left.

T1 sequence (Q62226 25-198 limits assumed): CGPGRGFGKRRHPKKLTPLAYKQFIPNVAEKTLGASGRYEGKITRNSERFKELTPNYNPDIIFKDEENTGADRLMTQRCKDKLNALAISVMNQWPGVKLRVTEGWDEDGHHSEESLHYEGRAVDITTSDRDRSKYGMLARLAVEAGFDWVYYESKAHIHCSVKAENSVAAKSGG

In the case of `O=C(NN1CCN(c2nc(-c3ccc4ccccc4n3)no2)CC1)C1CCC(F)(F)CC1`, at Sonic hedgehog protein [1], half-maximal inhibition (IC50) required 25 nM.

With `Clc1ccc(N2CCC(N3CCCC3)CC2)cc1-c1nc2ccccc2[nH]1`, the IC50 – broadly, the concentration needed to halve the response being measured – in assay [2] is 23 nM.

Compound `COc1ccc(OC)c2c1cc1n2CC(C)(C(=O)NC2CCCCCCC2)N(CCN(C)C)C1=O` (centres undefined) had an IC50 in assay [3] of less than 10000 nM.

Compound `Cc1c(Cc2ccccc2)nnc(N2CCN(c3cnc(C(C)(C)O)cn3)[C@H](C)C2)c1C` [LEQ506] displayed an IC50 against Protein smoothened of less than 100 nM.

In turn, `CCC(C)n1ncn(-c2ccc(N3CCN(c4ccc(OCC5COC(Cn6cncn6)(c6ccc(Cl)cc6Cl)O5)cc4)CC3)cc2)c1=O` (centres undefined) [ITRACONAZOLE] yielded an IC50 in [4] of 55 nM.

Turning to `CN(C)c1ccccc1CN1CCCN(Cc2ccccc2N(C)C)C1c1ccncc1`, the GI50 (as a rule, the concentration that inhibits growth by half) in [5] amounted to 5820 nM.

In turn, `N#C/C(C(=O)c1ccc(Cl)cc1Cl)=C1\NC(=O)c2ccccc2N1` gave an IC50 in assay [3] of less than 10000 nM.

`CCC(C)CNCC(=O)N1CCc2sccc2C1COc1cccc(C)c1` (centres undefined): the IC50 against Sonic hedgehog protein [6] and at Sonic hedgehog protein [7] was 10000 nM in each case.

As for `O=C(NN1CCN(c2nc(-c3cnc4ccccc4n3)no2)CC1)C1CCCCC1`, the IC50 at Sonic hedgehog protein [1] was 5 nM.

With `CC1=C2C[C@H]3[C@@H](CCC4=CC(=O)CC[C@@]43C)[C@@H]2CC[C@@]2(C1)O[C@@H]1C[C@H](C)CN[C@H]1[C@H]2C`, in assay [8], the EC50 (in general, the concentration that produces a half-maximal response) was 200 nM.

Regarding `COCCOC(=O)C1=C(C)NC2=C(C(=O)CC(c3ccccc3OC)C2)C1c1cccc(O)c1` (centres undefined), in [3], the IC50 was less than 10000 nM.

`OCCNc1nc(N2CCN(c3ccccc3)CC2)nc2ccccc12`: the IC50 in assay [3] was less than 10000 nM.

Regarding `C=C1CC[C@H](O)C/C1=C/C=C1\CCC[C@]2(C)[C@@H]([C@H](C)CCCC(C)C)CC[C@@H]12` [CHOLECALCIFEROL], the Activity entry in assay [9] was “<=90%”.
